Laboratory results published in patent US20230165865A1, “HETEROARYLDIHYDROPYRIMIDINE DERIVATIVES AND METHODS OF TREATING HEPATITIS B INFECTIONS” (Janssen Pharmaceutica NV, priority 2018, published 2023).
Where two headings read alike, the source gives them in different places.

How the values were obtained:
[1] = test system: HepG2.2.15 cells; experiment: Cytotoxicity determination in HepG2.2.15 cells (CCK-8 assay); format: cell-based; details: 6 days treatment, CCK-8, highest concentration 100 uM
Outline: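 HepG2.2.15 cells (5,000/well, 2% FBS medium) were treated for 6 days, with medium and compound refreshed at day 3. Dosing was an 8-point 1:3 series from 100 uM, in triplicate. Viability was measured by CCK-8 after 2.5 h at 37 °C (A450, 630 nm reference), and CC50 was calculated.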

[2] = Metabolic stability of test compound in human hepatocyte cell; format: in vitro ADME; details: cryopreserved human hepatocytes (suspension), human hepatocytes; for half-life at 1 uM: 0-120 min, read-out: T½; for CLint scaled at 1 uM: scale-up intrinsic clearance, scaling factor 2544.3, read-out: Clint (liver)
Experimental: (§1) • 1. The cryopreserved human hepatocytes cells were thawed in 37° C. water bath and diluted with pre-warmed incubation medium to a working cell density of 1×10^6 viable cells/mL. • 2. The 198 μL pre-warmed hepatocyte suspensions were spiked with 2 μL of 100 μM compound or reference compound(Verapamil) at a final concentration of 1.0 μM in a 96-well plate. The plate was incubated at 37° C., 900 rpm. All incubations will be performed in singlet. • 3. 25 μL aliquots of well contents were collected at time points of 0, 15, 30, 60, 90 and 120 minutes. The reactions were stopped by the addition of 6-fold volumes of cold acetonitrile with internal standards. • 4. After centrifugation for 25 minutes at 3,220 g. Aliquot of 100 μL of the supernatant was mixed with 100 μL of ultra-pure H2O and then used for LC-MS/MS analysis.
(§2) All calculations were carried out using Microsoft Excel. Peak areas were determined from extracted ion chromatograms. Determine the in vitro half-life (t1/2) of parent compound by regression analysis of the percent parent disappearance vs. time curve.
(§3) The in vitro half-life (in vitro t1/2) is determined from the slope value k:
(§4) Conversion of the in vitro t1/2(in min) into the in vitro intrinsic clearance (in vitro CLint, in μL/min/10^6 cells) is done using the following equation:
(§5) V=incubation volume (0.2 mL);
(§6) N=number of hepatocytes per well (0.2×10^6 cells).
(§7) Conversion of the in vitro t1/2(in min) into the scale-up intrinsic clearance (CLint(liver), in mL/min/kg) was done using the following equation:
(§8) CLint(liver)=kV/N×scaling factor

[3] = test system: human hepatocytes; experiment: as above; format: in vitro ADME; details: for metabolic stability in human hepatocyte cells, in words: comparing with reference 1 and reference 2
Experimental: as §1, §2, §3, §4, §5, §6, §7, §8

[4] = Pharmacokinetic study after intravenous and oral administration in male SD rats; format: in vivo; details: for clearance / Cmax: male, SD; for clearance / Cmax / IV AUCinf/Dose / PO AUCinf/Dose / clearance, in words / dose-normalized AUC (AUCinf/Dose), in words: rat plasma; for clearance / IV AUCinf/Dose: IV, nominal 2 mg/kg; for clearance: read-out: IV Cl; for Cmax / PO AUCinf/Dose: PO; for Cmax: nominal 5 mg/kg; for clearance, in words / dose-normalized AUC (AUCinf/Dose), in words / bioavailability (F (%)), in words: comparing with reference 2; for F / bioavailability (F (%)), in words: rat; for F: PO vs IV
Experimental: Male SD rats with a weight range of 250-300 g (Si Bei Fu Laboratory Animal Technology Co. Ltd, China) were used. Animals were fasted overnight and free access to food 4 hours after dosing.
(§9) Test compound (correction factor: 1.00) was dissolved in a 20% hydroxypropyl-β-cyclodextrin (HP-β-CD) at a final concentration of 1 mg/ml for the intravenous (IV) formulation and at final concentrations of 0.5 mg/ml for the oral (PO) formulation.
The intravenous formulation was dosed at 2 ml/kg to obtain a dose of 2 mg/kg. The oral formulations were dosed at 10 ml/kg to obtain final doses of 5 mg/kg.
Blood samples were taken at 5, 15 and 30 min, 1, 2, 4, 8 and 24 h after intravenous dose administration. Blood samples were taken at 15 and 30 min, 1, 2, 4, 8, 12 and 24 h after oral dose administration.
(§10) Approximately 0.20 mL blood will be collected into BD blood collection tubes containing Sodium Fluoride (NaF), Potassium Oxalate (KoX) and K3-EDTA at each time point. Samples were placed immediately on melting ice and plasma was obtained following centrifugation at 4° C. for 5 minutes at approximately 4000×g. Plasma samples were adjusted to pH 3-4 by phosphoric acid and stored at −75±15° C. prior to analysis. The whole process was completed within 1 hour.
Plasma samples were analyzed using LC-MS/MS methods. The lower limit of quantification (LLOQ) for plasma was 1.0 ng/ml.
A non-compartmental analysis using the “Linear up log down” rule was used for all data. A limited pharmacokinetic analysis was performed using Phoenix™ Professional (Version 6.1). Results: See table 10 below for plasma PK results.

[5] = test system: HBV; experiment: Anti-viral assay in HepG2.2.15 cells: anti-HBV activity, HBV DNA in culture medium by qPCR; format: cell-based; details: HepG2.2.15 cells, 6 days treatment, HBV DNA by qPCR; read-out: EC50
Outline: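 Cells in 2% FBS medium treated 6 days, compound and medium refreshed at day 3; 8-point 1:3 dilutions in triplicate, top 10 or 1 uM (antiviral) and 100 uM (cytotoxicity). Extracellular viral DNA quantified by qPCR, giving EC50 and CC50.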

[6] = Pharmacokinetic and tissue distribution study via intravenous and oral administration in male C57BL/6 mice; format: in vivo; details: for F: PO vs IV; for Kp: liver and plasma, po
Experimental: Male C57BL/6 mice with a weight range of 20-25 g (Hua Fu Kang, China) were used. Animals were fasted overnight and free access to food 4 hours after dosing.
as §9, with “formulation. The intravenous formulation was dosed at 2 ml/kg to obtain a dose of 2 mg/kg. The oral formulations were dosed at 10 ml/kg to obtain final doses of 5 mg/kg.” for “formulation.”
Blood samples were taken at 7 and 20 min, 1, 2, 4, 8 and 24 h after intravenous dose administration. Blood and liver samples were taken at 30 min, 1, 2, 4, 8, 12 and 24 h after oral dose administration.
as §10, with “0.020” for “0.20”, “containing” for “containing Sodium Fluoride (NaF), Potassium Oxalate (KoX) and”
Liver samples were collected at adopted time point, and the vial containing the tissues sample was snap-frozen in liquid nitrogen right away and kept at −75±15° C. prior to analysis. All liver samples were weighed and homogenized with phosphoric acid solution (pH to 3-4) by liver weight (g) to phosphoric acid solution volume (mL) ratio 1:4 before analysis.
Plasma and liver samples were analyzed using LC-MS/MS methods. The lower limit of quantification (LLOQ) for plasma was 1.0 ng/ml and for liver was 2.5 ng/g. A non-compartmental analysis using the “Linear up log down” rule was used for all data. A limited pharmacokinetic analysis was performed using Phoenix™ Professional (Version 6.1).

[7] = mice plasma, IV, nominal 2 mg/kg

| Structure (SMILES) | CC50 [1] [µM] | half-life at 1 uM [2] [min] | CLint scaled at 1 uM [2] [mL/min/kg] | metabolic stability in human hepatocyte cells, in words [3] | clearance [4] [mL/min/kg] | Cmax [4] [ng/mL] | IV AUCinf/Dose [4] [ng·kg·h/mg/mL] | PO AUCinf/Dose [4] [ng·kg·h/mg/mL] | clearance, in words [4] | dose-normalized AUC (AUCinf/Dose), in words [4] | F [4] [%] | bioavailability (F (%)), in words [4] | EC50 [5] [nM] | Liver AUCinf/Dose ([6]; mice liver, PO) [ng·kg·h/g/mg] | Liver Cmax/Dose ([6]; mice liver, PO) [kg·ng/mg/mL] | IV AUCinf/Dose [6, 7] [ng·kg·h/mg/mL] | PO AUCinf/Dose ([6]; mice plasma, PO) [ng·kg·h/mg/mL] | F ([6]; mice) [%] | also measured |
| --- | --- | --- | --- | --- | --- | --- | --- | --- | --- | --- | --- | --- | --- | --- | --- | --- | --- | --- | --- |
| COC(=O)C1=C(CN2CCN3C(=S)N(CC(C)(C)C(=O)O)CC3C2)NC(c2nccs2)=NC1c1ccc(F)cc1Cl (single isomer, unassigned) [Compound 4B, 3-(7-((6-(2-chloro-4-fluorophenyl)-5-(methoxycarbonyl)-2-(thiazol-2-yl)-3,6-dihydropyrimidin-4-yl)methyl)-3-thioxohexahydroimidazo[1,5-a]pyrazin-2(3H)-yl)-2,2-dimethylpropanoic acid] | 23.1 | > 289 | < 6.1 | improved metabolic stability | 28.8 | 962 | 594.3 | 336.8 | far slower clearance | over two-folds higher | 56.5 | increased (or equal) bioavailability | 1.9 | – | – | – | – | – | – |
| CCOC(=O)C1=C(CN2CCOCC2)NC(c2nccs2)=NC1c1ccc(F)cc1Br (stereo not shown) [Reference 1, GLS4, reference compound] | – | – | – | – | – | – | – | – | – | – | – | – | – | 69.2 | 5.1 | 232.5 | 17.3 | 7.5 | T½ ([3]; human hepatocytes, 1.0 μM, 0-120 min): 15.3 min; Clint (liver) ([3]; human hepatocytes, scale-up intrinsic clearance, scaling factor 2544.3): 115.3 mL/min/kg; IV Cl [6, 7]: 73.9 mL/min/kg; PO Cmax ([6]; mice plasma, PO, dose per compound in table (5.28-9.95 mg/kg)): 14.5 ng/mL |
| CCOC(=O)C1=C(CN2CCN3C(=S)N(CC(C)(C)C(=O)O)CC3C2)NC(c2nccs2)=NC1c1cccc(F)c1Cl (single isomer, unassigned) [Compound 3B, 3-(7-((6-(2-chloro-3-fluorophenyl)-5-(ethoxycarbonyl)-2-(thiazol-2-yl)-3,6-dihydropyrimidin-4-yl)methyl)-3-thioxohexahydroimidazo[1,5-a]pyrazin-2(3H)-yl)-2,2-dimethylpropanoic acid] | 17.8 | 174 | 10.1 | improved metabolic stability | 23.4 | 1180 | 771.6 | 389.2 | far slower clearance | over two-folds higher | 50.3 | increased (or equal) bioavailability | 1.7 | 20884 | 6624 | 830.9 | 1049.3 | 126 | Kp ([6]; male, C57BL/6, mouse, mice, PO, read-out: AUCInf Ratio (Liver/Plasma)): 19.9; Kp ([6]; male, C57BL/6, mouse, mice, PO, read-out: Cmax Ratio (Liver/Plasma)): 15.3; clearance ([6]; male, C57BL/6, mouse, mice plasma, IV, nominal 2 mg/kg, read-out: IV Cl): 20.2 mL/min/kg; Cmax ([6]; male, C57BL/6, mouse, mice plasma, PO, dose per compound in table (5.28-9.95 mg/kg)): 2340 ng/mL; dose-normalized Cmax and dose-normalized AUCinf in liver, in words ([6]; mice liver, comparing with reference 1 and reference 2): far increased; clearance, in words ([6]; mice plasma, comparing with reference 1 and reference 2): far slower clearance; bioavailability in plasma, in words ([6]; mice, comparing with reference 1 and reference 2): increased bioavailability |
| CCOC(=O)C1=C(CN2CCN3C(=S)N(C)C[C@@H]3[C@H]2C(=O)O)NC(c2nccs2)=N[C@H]1c1cccc(F)c1C (single isomer, unassigned) [Compound 35B] | 46.6 | – | – | – | – | – | – | – | – | – | – | – | 1.1 | – | – | – | – | – | – |
